Data published in ChEMBL document CHEMBL1132086, “Total synthesis of an antioxidant isolated from yeast via palladium-catalyzed coupling and its application for related compounds” (Bioorg Med Chem Lett, 1999).

Species on record: Cavia porcellus
Test: Antioxidative activity was evaluated by using the lipid peroxidation of guinea pig liver microsomes
Format: functional

Compound	IC50 [µM]
COc1c2c(cc(O)c1-c1ccc(-c3ccccc3)cc1)OCO2	107
COc1c2c(cc(O)c1-c1ccc(C)cc1)OCO2	65
COc1c2c(cc(O)c1-c1cc3ccccc3o1)OCO2	98
COc1ccc(-c2c(O)cc3c(c2OC)OCO3)cc1	56
COc1c2c(cc(O)c1-c1cccs1)OCO2	44
COc1c2c(cc(O)c1-c1ccccc1)OCO2	83
Cc1c(C)c2c(c(C)c1O)CC[C@@](C)(CCC[C@H](C)CCC[C@H](C)CCCC(C)C)O2 [ALPHA-TOCOPHEROL]	280
CCCOC(=O)c1cc(O)c(O)c(O)c1 [PROPYL GALLATE]	50
